Entries after “also recorded” stand apart in the source; their conditions may differ.
Assays:
FGF23 binding to FGFR2c [1] = molecular target: T1, FGF23 binding to FGFR2c (Homo sapiens, UniProt P21802); experiment: Pull-down of FGF23 with Fc-FGFR on protein A/G beads with sKL, heparin or PBS; details: with heparin, or alone
T1 construct: Fc-coupled FGFR ectodomains were immobilized on protein A/G beads; purchased R&D Systems 2604FG025/CF or 2629FG025/CF; 712FR050
Procedure: (§1) To study the interaction between Fc-tagged FGFR isoforms (Fc-FGFR), FGF isoforms, and sKL, immunoprecipitation studies were conducted. Protein A beads (6501, BioVision) and protein G beads (6511, BioVision) were used at 25 μl of a 50% stock slurry per sample in a total bead volume of 50 μl. Beads were washed 5× in activity buffer (50 mM Tris [pH 7.4], 200 mM NaCl, 0.01% Tween 20). Bead spin-down assays were all performed for 2 minutes at 5000 g. Beads were resuspended in 1 ml of activity buffer in a 1.5-ml snap cap tube. One microgram of Fc-FGFR1 to 4 was incubated with the beads for 1 hour on a bead rotator. Control samples were incubated with 2 μg of anti-FGF antibody instead of Fc-FGFR. Beads were then pelleted at 5000 g for 2 minutes and washed 5× with activity buffer. Beads were resuspended and incubated with different combinations of 500 ng of FGF, 1 μg of sKL, 1.6 United States Pharmacopeia (USP) units of heparin, or phosphate-buffered saline (PBS). Beads were incubated for 1 hour on a tube rotator, and beads were pelleted and washed as before. One hundred microliters of 1× Laemmli sample buffer (1610737, Bio-Rad) with 1.42 M 2-mercaptoethanol was added, and samples were boiled for 5 minutes. Samples were analyzed using SDS-PAGE and Western blotting.
(§2) The sample (20 μl) was loaded onto Mini-PROTEAN TGX Precast Gel 4-20% for experiments with <9 samples (4568094, Bio-Rad) or Criterion TGX Precast Gel 4-20% (5678094, Bio-Rad) for experiments with >9 samples. Gels were run in 1× Tris/Glycine/SDS buffer (1610732, Bio-Rad) at 150 V and stopped when the sample dye reached the end of the gel. Gels were removed and electrotransferred via a semi-dry cassette (1703940, Bio-Rad) in I× Tris/Glycine buffer (1610734, Bio-Rad) with 20% methanol. Gels were transferred onto polyvinylidene diflouride membranes (IPVH00010, Millipore) at 20 V for 1 hour. Membranes were then blocked in 5% dried milk with 0.5% Tween 20 diluted in Tris-buffered saline (TBST; pH 7.5) for 1 hour and probed with antibodies against specific antigens at 1:1000 in TBST with 5% dried milk. Blots were washed 3× for 5 minutes in TBST and probed with HRP-coupled secondary antibodies against specific species at 1:10,000 in TBST with 5% dried milk. Membranes were imaged on the SRX-101A X-ray film developer (Konica Minolta).

FGF23 binding to FGFR1c [2] = molecular target: T2, FGF23 binding to FGFR1c (Homo sapiens, UniProt P11362+Q9GZV9); experiment: as above; details: with heparin, or alone
T2 construct: Fc-coupled FGFR ectodomains were immobilized on protein A/G beads; purchased R&D Systems 2604FG025/CF or 2629FG025/CF; 658FR050
Procedure: as §1, §2

FGF23 binding to FGFR3c [3] = molecular target: T3, FGF23 binding to FGFR3c (Homo sapiens, UniProt P22607+Q9GZV9); experiment: as above; details: with heparin, or alone
T3 construct: Fc-coupled FGFR ectodomains were immobilized on protein A/G beads; purchased R&D Systems 2604FG025/CF or 2629FG025/CF; 766FR050
Procedure: as §1, §2

FGF23 binding to FGFR4 [4] = molecular target: T4, FGF23 binding to FGFR4 (Homo sapiens, UniProt P22455+Q9GZV9); experiment: as above; details: with heparin, or alone
T4 construct: Fc-coupled FGFR ectodomains were immobilized on protein A/G beads; purchased R&D Systems 2604FG025/CF or 2629FG025/CF; 685FR050
Procedure: as §1, §2

FGF23 binding to FGFR2c [5] = molecular target: T1, FGF23 binding to FGFR2c; experiment: Plate-based binding, FGF23 coated, then sKL, heparin or PBS, then Fc-FGFR; details: with sKL, with heparin 0.4 USP, or alone
Procedure: (§3) Proteins were coated on 96-well plates (MaxiSorp; 439454, Thermo Fisher Scientific), and proteins were added to wells in 100 μl of enzyme-linked immunosorbent assay (ELISA) coating buffer (E107, Bethyl Laboratories) with a lid placed overtop and incubated at 4° C. overnight. Plates were washed 5× with 350 μl of assay buffer (50 mM Tris [pH 7.4], 200 mM NaCl, 0.01% Tween 20) on a 50 TS microplate washer (BioTek). Plates were blocked for 1 hour in 200 μl of assay buffer with 0.5% BSA. Plates were washed as before, and proteins were incubated on plates in 100 μl of assay buffer with 0.5% BSA. Proteins or heparin was incubated in orders described in the respective figure legends. Assays using FLAG-tag-based detection were incubated with anti-FLAG coupled to HRP at 1:20,000, and assays using Fc detection were incubated with anti-human Fc coupled to HRP at 1:10,000. Plates were washed as above, and 100 μl of 3,3′,5,5′-tetramethylbenzidine (TMB) substrate (E102, Bethyl Laboratories) was added for 15 to 20 minutes until positive wells developed a dark blue color. Reactions were stopped with ELISA stop solution (E115, Bethyl Laboratories) and analyzed using the Synergy HI plate reader (BioTek) at 450 nm wavelength. […] As a control to remove background absorbance values, wells were coated with an equal amount of BSA to match the amount of protein coated in experimental wells and treated the same as experimental wells. To study the effects of sKL on the binding between paracrine FGFs and FGFRs, plates were run as above except coated with paracrine FGFs. Fc-FGFR1 was preincubated with sKL or vehicle for 60 minutes, and then the combination was added to wells and the assay was run as before.

FGF23 binding to FGFR1c [6] = molecular target: T2, FGF23 binding to FGFR1c; experiment: as above; details: with sKL, with heparin 0.4 USP, or alone
Procedure: as §3

FGF23 binding to FGFR3c [7] = molecular target: T3, FGF23 binding to FGFR3c; experiment: as above; details: with sKL, with heparin 0.4 USP, or alone
Procedure: as §3

FGF23 binding to FGFR4 [8] = molecular target: T4, FGF23 binding to FGFR4; experiment: as above; details: with sKL, with heparin 0.4 USP, or alone
Procedure: as §3

T2 sequence (Q9GZV9 25-251): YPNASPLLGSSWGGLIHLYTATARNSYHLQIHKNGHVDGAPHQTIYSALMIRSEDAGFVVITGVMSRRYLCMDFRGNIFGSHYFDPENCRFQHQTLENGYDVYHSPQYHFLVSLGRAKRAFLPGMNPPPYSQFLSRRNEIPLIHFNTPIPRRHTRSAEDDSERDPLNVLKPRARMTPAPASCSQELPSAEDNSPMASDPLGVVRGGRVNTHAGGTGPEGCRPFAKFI
T2 sequence (P11362 22-376 limits assumed): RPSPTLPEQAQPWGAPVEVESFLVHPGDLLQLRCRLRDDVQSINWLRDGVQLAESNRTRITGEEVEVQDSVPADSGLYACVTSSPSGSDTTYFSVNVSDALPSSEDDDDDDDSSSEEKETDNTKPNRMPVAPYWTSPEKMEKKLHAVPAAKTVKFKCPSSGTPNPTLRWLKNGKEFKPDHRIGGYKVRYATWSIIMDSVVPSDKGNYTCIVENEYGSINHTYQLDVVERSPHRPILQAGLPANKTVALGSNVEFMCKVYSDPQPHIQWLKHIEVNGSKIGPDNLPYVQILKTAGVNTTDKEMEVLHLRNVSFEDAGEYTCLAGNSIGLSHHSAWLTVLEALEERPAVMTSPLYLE
T3 sequence (Q9GZV9 25-251): as the sequence (Q9GZV9 25-251) above
T3 sequence (P22607 23-375 limits assumed): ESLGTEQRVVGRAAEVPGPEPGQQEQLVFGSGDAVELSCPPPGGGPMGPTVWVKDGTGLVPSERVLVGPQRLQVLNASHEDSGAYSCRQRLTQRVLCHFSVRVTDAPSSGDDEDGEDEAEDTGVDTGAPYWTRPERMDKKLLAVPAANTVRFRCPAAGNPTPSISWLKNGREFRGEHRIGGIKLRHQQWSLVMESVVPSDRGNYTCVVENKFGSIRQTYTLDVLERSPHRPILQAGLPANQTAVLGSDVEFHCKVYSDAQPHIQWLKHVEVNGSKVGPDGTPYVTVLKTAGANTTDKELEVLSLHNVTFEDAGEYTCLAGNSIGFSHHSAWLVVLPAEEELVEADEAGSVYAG
T4 sequence (Q9GZV9 25-251): as the sequence (Q9GZV9 25-251) above
T4 sequence (P22455 22-369 limits assumed): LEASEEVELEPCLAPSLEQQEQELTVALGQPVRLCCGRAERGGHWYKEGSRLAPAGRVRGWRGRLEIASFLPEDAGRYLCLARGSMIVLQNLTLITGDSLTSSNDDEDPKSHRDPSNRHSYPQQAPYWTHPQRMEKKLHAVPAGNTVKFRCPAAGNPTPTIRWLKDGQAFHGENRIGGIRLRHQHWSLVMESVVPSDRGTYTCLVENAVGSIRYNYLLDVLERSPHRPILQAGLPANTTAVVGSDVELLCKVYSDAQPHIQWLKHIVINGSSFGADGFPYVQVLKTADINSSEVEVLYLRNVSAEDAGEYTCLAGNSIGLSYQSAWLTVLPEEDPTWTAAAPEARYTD
T1 sequence (P21802 22-377 limits assumed): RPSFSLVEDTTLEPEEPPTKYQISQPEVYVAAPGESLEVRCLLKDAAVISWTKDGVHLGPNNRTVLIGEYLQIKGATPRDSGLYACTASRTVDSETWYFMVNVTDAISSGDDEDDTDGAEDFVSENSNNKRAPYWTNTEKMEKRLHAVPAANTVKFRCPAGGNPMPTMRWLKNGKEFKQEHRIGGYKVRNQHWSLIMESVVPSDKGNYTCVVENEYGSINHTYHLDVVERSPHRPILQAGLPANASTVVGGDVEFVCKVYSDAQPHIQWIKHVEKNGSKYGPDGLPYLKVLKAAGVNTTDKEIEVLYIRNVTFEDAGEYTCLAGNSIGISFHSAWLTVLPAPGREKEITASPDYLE

FGF23 co-precipitation with Fc-FGFR2c (FGF23 binding to FGFR2c [1]): weaker FGF23 binding | FGF23 co-precipitation with Fc-FGFR1c (FGF23 binding to FGFR1c [2]): weaker FGF23 binding | FGF23 co-precipitation with Fc-FGFR3c (FGF23 binding to FGFR3c [3]): weaker FGF23 binding | binding of coated FGF23 to Fc-FGFR1c (FGF23 binding to FGFR1c [6]): no measurable binding | binding of coated FGF23 to Fc-FGFR3c (FGF23 binding to FGFR3c [7]): no measurable binding
Substance: heparin [reference compound]
FGF23 co-precipitation with Fc-FGFR4 (FGF23 binding to FGFR4 [4]): efficiently coprecipitates FGF23; also recorded: increased binding of FGF23 to FGFR4 | binding of coated FGF23 to Fc-FGFR2c (FGF23 binding to FGFR2c [5]): to a much lesser extent to FGFR2c; also recorded: weaker binding to FGFR2c | binding of coated FGF23 to Fc-FGFR4 (FGF23 binding to FGFR4 [8]): significantly increased; also recorded: the strongest

Source: US20240384250A1, “FIBROBLAST GROWTH FACTOR 23 MODULATING COMPOUNDS” (THE UAB RESEARCH FOUNDATION, priority 2021, published 2024)
